Results: US10160762B2, “6-alkyl dihydropyrazolopyrimidinone compounds as PDE2 inhibitors” (Merck Sharp & Dohme Corp., priority 2015, dated 2018)
Like-named read-outs stand apart in the source and are kept apart here.

How the values were obtained:
Rhesus PDE2A3 = biological target: T1, Rhesus PDE2A3 (Macaca mulatta, UniProt B3VTJ2); experiment: PDE2 fluorescence polarization (IMAP FP) inhibition assay, rhesus PDE2A3; assay type: biochemical, rhesus macaque
T1 construct: made in house; host or cells: AD293 cells, transient transfection; supernatant of sonicated lysate
T1 sequence (B3VTJ2 1-941): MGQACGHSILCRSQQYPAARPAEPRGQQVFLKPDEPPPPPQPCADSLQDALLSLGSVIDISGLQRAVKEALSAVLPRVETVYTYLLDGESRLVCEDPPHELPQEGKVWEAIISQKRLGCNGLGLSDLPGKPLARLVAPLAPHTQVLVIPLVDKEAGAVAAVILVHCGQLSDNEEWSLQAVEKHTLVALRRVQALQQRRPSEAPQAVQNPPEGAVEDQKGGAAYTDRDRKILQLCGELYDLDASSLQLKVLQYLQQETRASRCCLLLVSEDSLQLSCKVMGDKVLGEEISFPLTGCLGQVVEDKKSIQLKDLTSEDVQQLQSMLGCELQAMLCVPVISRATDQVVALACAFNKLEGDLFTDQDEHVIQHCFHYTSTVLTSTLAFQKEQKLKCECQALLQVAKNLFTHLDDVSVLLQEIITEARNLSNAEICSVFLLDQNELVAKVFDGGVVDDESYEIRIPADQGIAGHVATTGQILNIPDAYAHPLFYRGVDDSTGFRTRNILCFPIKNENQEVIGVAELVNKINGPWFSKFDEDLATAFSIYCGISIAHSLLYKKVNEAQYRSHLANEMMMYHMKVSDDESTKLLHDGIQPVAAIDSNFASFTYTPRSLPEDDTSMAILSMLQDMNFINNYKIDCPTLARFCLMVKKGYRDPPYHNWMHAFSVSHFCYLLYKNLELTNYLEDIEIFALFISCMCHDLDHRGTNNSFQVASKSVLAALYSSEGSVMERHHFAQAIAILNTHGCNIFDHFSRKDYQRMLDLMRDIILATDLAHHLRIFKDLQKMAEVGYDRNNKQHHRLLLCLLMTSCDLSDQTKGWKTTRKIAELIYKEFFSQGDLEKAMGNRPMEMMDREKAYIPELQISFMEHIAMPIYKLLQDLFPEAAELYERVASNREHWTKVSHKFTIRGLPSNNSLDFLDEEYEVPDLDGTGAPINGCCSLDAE
Procedure: The activity of the compounds in accordance with the present invention as PDE2 inhibitors may be readily determined using a fluorescence polarization (FP) methodology (Huang, W., et al., J. Biomol Screen, 2002, 7: 215).
The PDE2 inhibitory activity of the compounds of the present invention was determined in accordance with the following experimental method. Rhesus PDE2A3 was amplified from rhesus macaque brain cDNA (Biochain Institute, Hayward, Calif.) using primers based on human PDE2A sequence (accession NM_002599.3) where the forward primer containing a Kozak consensus was 5′-[…]-3′ and the reverse primer was 5′-[…]-3′. Amplification with Easy-A High-Fidelity PCR cloning enzyme (Stratagene, La Jolla, Calif.) was 95° C. for 2 minutes followed by thirty three cycles of 95° C. for 40 seconds, 52° C. for 30 seconds, and 72° C. for 2 minutes 48 seconds. Final extension was 72° C. for 7 minutes. The PCR product was TA cloned into pcDNA3.3-TOPO (Invitrogen, Carlsbad, Calif.) according to standard protocol. A consensus sequence was developed from multiple clones and then deposited into GenBank (EU812167). AD293 cells (Stratagene, La Jolla, Calif.) with 70-80% confluency were transiently transfected with rhesus PDE2A3/pcDNA3.3-TOPO using Lipofectamine 2000 according to manufacturer specifications (Invitrogen, Carlsbad, Calif.). Cells were harvested 48 hours post-transfection and lysed by sonication (setting 3, 10×5 sec pulses) in a buffer containing 20 mM HEPES pH 7.4, 1 mM EDTA and Complete Protease Inhibitor Cocktail Tablets (Roche, Indianapolis, Ind.). Lysate was collected by centrifugation at 75,000×g for 20 minutes at 4° C. and supernatant utilized for evaluation of PDE2 activity. The fluorescence polarization assay for cyclic nucleotide phosphodiesterases was performed using an IMAP® FP kit supplied by Molecular Devices, Sunnyvale, Calif. (product #R8139). […] Assays were performed at room temperature in 384-well microtiter plates with an incubation volume of 20.2 μL. Solutions of test compounds were prepared in DMSO and serially diluted with DMSO to yield 8 μL of each of 10 solutions differing by 3-fold in concentration, at 32 serial dilutions per plate. […] 0% of inhibition is determined by using DMSO (1% final concentrations).
A Labcyte Echo 555 (Labcyte, Sunnyvale, Calif.) is used to dispense 200 nL from each well of the titration plate to the 384 well assay plate. Ten microliters of a solution of enzyme (1/2000 final dilution from aliquots; sufficient to produce 20% substrate conversion) was added to the assay plate. Next 10 uL of a separate solution of the substrate FAM-labeled cAMP (50 nM final concentration product # R7506 from Molecular Devices) and the activator cGMP (1 uM final concentration), prepared in the assay buffer (10 mM Tris HCl, pH 7.2, 10 mM MgCl2, 0.05% NaN3 0.01% Tween-20, and 1 mM DTT) was added to the assay plate and shaken to mix. The reaction is allowed to proceed at room temperature for 60 minutes. A binding solution is then made from the kit components, comprised of 80% Solution A, 20% Solution B and binding reagent at a volume of 1/600 the total binding solution. The enzymatic reaction is stopped by addition of 60 μL of the binding solution to each well of the assay plates and the plates are sealed and shaken for 30 seconds. The plate was incubated at room temperature for at least one hour prior to determining the fluorescence polarization (FP). The parallel and perpendicular fluorescence of each well of the plate was measured using a Tecan Genios Pro plate reader (Tecan, Switzerland) or Perkin Elmer EnVision™ plate reader (Waltham, Mass.). Fluorescence polarization (mP) was calculated from the parallel (S) and perpendicular (P) fluorescence of each sample well and the analogous values for the median control well, containing only substrate (So and Po), using the following equation: Polarization(mP)=1000*(S/So−P/Po)/(S/So+P/Po).

other PDE isoforms = conditions: reported in Brandon et al., Annual Reports in Medicinal Chemistry 42, 2007; cited from earlier work
[1] = reported in Brandon et al., Annual Reports in Medicinal Chemistry 42, 2007; cited from earlier work
[2] = Lab B, read-out: Rhesus PDE2 Ki (nM) Lab B
[3] = Lab A, read-out: Rhesus PDE2 Ki (nM) Lab A

SMILES	Ki (Rhesus PDE2A3; [2]) [nM]	Ki (Rhesus PDE2A3; [3]) [nM]	also measured
COCc1nc2c(c(CO)nn2C(C)c2ccc(C(F)(F)F)cc2)c(=O)[nH]1 (single isomer, unassigned) [Example 292]	473	–	–
COc1ccc(Cc2nn3c([C@@H](CCCc4ccccc4)[C@@H](C)O)nc(C)c3c(=O)[nH]2)cc1OC [BAY 60-7550, Bay 60-7550]	–	–	potency at other PDE isoforms (other PDE isoforms): significant potency; brain penetration [1]: limited
Cc1nn(C(C)c2ccc(C(F)(F)F)cc2)c2nc(C(C)O)[nH]c(=O)c12 (centres unmarked) [Example 29, 6-(1-Hydroxyethyl)-3-methyl-1-(1-(4-(trifluoromethyl)phenyl)ethyl)-1H-pyrazolo[3,4-d]pyrimidin-4(5H)-one]	–	583	–
Cc1nn(C(C)c2ccc(C(F)(F)F)cc2)c2nc(CCC(=O)N(C)C)[nH]c(=O)c12 (centres unmarked) [Example 32, N,N-Dimethyl-3-(3-methyl-4-oxo-1-(1-(4-(trifluoromethyl)phenyl)ethyl)-4,5-dihydro-1H-pyrazolo[3,4-d]pyrimidin-6-yl)propanamide]	416	275	–
Cc1nn(C(C)c2ccc(C(F)(F)F)cc2)c2nc(C3CCOC3)[nH]c(=O)c12 (centres unmarked) [Example 33, 3-Methyl-6-(tetrahydrofuran-3-yl)-1-(1-(4-(trifluoromethyl)phenyl)ethyl)-1H-pyrazolo[3,4-d]pyrimidin-4(5H)-one]	531	386	–
COCCc1nc2c(c(C)nn2C(C)c2ccc(C(F)(F)F)cc2)c(=O)[nH]1 (centres unmarked) [Example 34, 6-(2-Methoxyethyl)-3-methyl-1-(1-(4-(trifluoromethyl)phenyl)ethyl)-1H-pyrazolo[3,4-d]pyrimidin-4(5H)-one]	–	267	–
Cc1nn(C(C)c2ccc(C(F)(F)F)cc2)c2nc(C3CCOCC3)[nH]c(=O)c12 (centres unmarked) [Example 55, 3-Methyl-6-(tetrahydro-2H-pyran-4-yl)-1-{1-[4-(trifluoromethyl)phenyl]ethyl}-1,5-dihydro-4H-pyrazolo[3,4-d]pyrimidin-4-one]	–	421	–
Cc1nc2c(c(CCN)nn2C(C)c2ccc(C(F)(F)F)cc2)c(=O)[nH]1 (centres unmarked) [Example 282, 3-(2-Aminoethyl)-6-methyl-1-(1-(4-(trifluoromethyl)phenyl)ethyl)-1H-pyrazolo[3,4-d]pyrimidin-4(5H)-one]	> 2970	–	–
CC(c1ccc(C(F)(F)F)cc1)n1nc(COCc2ccccc2)c2c(=O)[nH]c(C(F)F)nc21 (centres unmarked) [Example 283, 3-((Benzyloxy)methyl)-6-(difluoromethyl)-1-(1-(4-(trifluoromethyl)phenyl)ethyl)-1H-pyrazolo[3,4-d]pyrimidin-4(5H)-one]	387	–	–

Second part, led by results:

Ki (Rhesus PDE2A3; [2]) [nM]	Ki (Rhesus PDE2A3; [3]) [nM]	SMILES	also measured
283	–	CC(=O)OCc1nn(C(C)c2ccc(C(F)(F)F)cc2)c2nc(C)[nH]c(=O)c12 (centres unmarked) [Example 319, (6-Methyl-4-oxo-1-(1-(4-(trifluoromethyl)phenyl)ethyl)-4,5-dihydro-1H-pyrazolo[3,4-d]pyrimidin-3-yl)methyl acetate]	–
2410	–	Cc1nc2c(c(C)nn2C(C)CNc2ccc(C(F)(F)F)cc2)c(=O)[nH]1 (centres unmarked) [Example 330, 3,6-Dimethyl-1-(1-(4-(trifluoromethyl)phenylamino)propan-2-yl)-1H-pyrazolo[3,4-d]pyrimidin-4(5H)-one]	–
1440	–	Cc1nc2c(c(C)nn2C(C)CN(C)c2ccc(C(F)(F)F)cc2)c(=O)[nH]1 (centres unmarked) [Example 331, 3,6-Dimethyl-1-(1-(methyl(4-(trifluoromethyl)phenyl)amino)propan-2-yl)-1H-pyrazolo[3,4-d]pyrimidin-4(5H)-one]	–
8880	–	Cc1nc2c(c(C)nn2C(C)C(O)c2ccc(C(F)(F)F)cc2)c(=O)[nH]1 (centres unmarked) [Example 332, 1-(1-Hydroxy-1-(4-(trifluoromethyl)phenyl)propan-2-yl)-3,6-dimethyl-1H-pyrazolo[3,4-d]pyrimidin-4(5H)-one]	–
~29000	–	Cc1nc2c(c(C)nn2C(C)C(C)(O)c2ccc(C(F)(F)F)cc2)c(=O)[nH]1 (centres unmarked) [Example 333, 1-(3-Hydroxy-3-(4-(trifluoromethyl)phenyl)butan-2-yl)-3,6-dimethyl-1H-pyrazolo[3,4-d]pyrimidin-4(5H)-one]	–
–	> 1000	Cc1nc2c(c(C)nn2C(C)C(=O)Nc2ccc(C(F)(F)F)cc2)c(=O)[nH]1 (centres unmarked) [Example 334, 2-(3,6-Dimethyl-4-oxo-4,5-dihydropyrazolo[3,4-d]pyrimidin-1-yl)-N-(4-(trifluoromethyl)phenyl)propanamide]	–
–	> 1000	Cc1nc2c(c(C)nn2CC(O)c2ccc(C(F)(F)F)cc2)c(=O)[nH]1 (centres unmarked) [Example 335, 1-(2-Hydroxy-2-(4-(trifluoromethyl)phenyl)ethyl)-3,6-dimethyl-1H-pyrazolo[3,4-d]pyrimidin-4(5H)-one]	–
7660	> 1000	Cc1nc2c(c(C)nn2CC(C)(O)c2ccc(C(F)(F)F)cc2)c(=O)[nH]1 (centres unmarked) [Example 336, 1-(2-Hydroxy-2-(4-(trifluormethyl)phenyl)propyl)-3,6-dimethyl-1H-pyrazolo[4-d]pyrimidin-4(5H)-one]	–
–	> 1000	Cc1nc2c(c(C)nn2CC(=O)Nc2ccc(C(F)(F)F)cc2)c(=O)[nH]1 [Example 337, 2-(3,6-Dimethyl-4-oxo-4,5-dihydro-1H-pyrazolo[3,4-d]pyrimidin-1-yl)-N-(4-(trifluoromethyl)phenyl)acetamide]	–
–	292	Cc1nc2c(c(C)nn2C(CCCc2ccccc2)c2sc(C)nc2C)c(=O)[nH]1 (centres unmarked) [Example 339, 1-[1-(2,4-dimethyl-1,3-thiazol-5-yl)-4-phenylbutyl]-3,6-dimethyl-1,5-dihydro-4H-pyrazolo[3,4-d]pyrimidin-4-one]	–
